Results published in patent US20130252813A1, “Herbicidal Compositions for Tolerant or Resistant Sugar Beet Crops” (Bayer CropScience AG, priority 1998, published 2013).
Structures can show the parent of a compound that is named as a salt.

What was measured:
Format in all cases: in vivo
transgenic sugar beet [1] = assay: Damage to transgenic sugar beet (greenhouse experiment, Table 3); settings: greenhouse Table 3, application in the 4-5-leaf stage
Amaranthus retroflexus = assay: Herbicidal action (field trial, sequential treatment, Table 8); settings: dose 200 g A.S./ha post-emergence at the 2-3-leaf stage; scorings 22 days after application
Description: (§1) Transgenic sugar beet plants with resistance to one or more herbicides (A) were grown together with typical weed plants in the open in 2×5 m plots under natural field conditions; alternatively, the weed population established naturally while the sugar beet plants grew. Treatment with the compositions according to the invention and, for control purposes, with separate application of the active ingredients of the components alone, was carried out under standard conditions with a plot sprayer at an application rate of 200-300 liters of water per hectare in parallel trials in accordance with the scheme of Table 1, i.e. pre-sowing/pre-emergence, […] or post-emergence at the early, medium or late stage.
(§2) […] Damage and development of all aerial plant organs was recorded. The scoring was done using a percentage scale (100% activity=all plants dead; 50% activity=50% of the plants and green plant organs dead; 0% activity=no discernible effect=like control plot). The score values of in each case 4 plots were averaged.

Setaria viridis [2] = assay: as above; settings: dose 200 g A.S./ha post-emergence at the 2-3-leaf stage; scorings 22 days after application
Description: as §1, §2

transgenic sugar beet [3] = assay: Damage to transgenic sugar beet - field trial (Table 2); settings: application in 2-4-leaf stage
Description: as §1
(§3) At 2, 4, 6 and 8 week intervals after application, the herbicidal activity of the active ingredients or active ingredient mixtures were scored visually by comparing the treated plots with untreated control plots. Damage and development of all aerial plant organs was recorded. The scoring was done using a percentage scale (100% activity=all plants dead; 50% activity=50% of the plants and green plant organs dead; 0% activity=no discernible effect=like control plot). The score values of in each case 4 plots were averaged.

Setaria viridis [4] = assay: Herbicidal action in sugar beet - field trial (Table 2); settings: application in 2-4-leaf stage, scoring 3 weeks after application
Description: as §1, §2

Galium aparine [5] = assay: Herbicidal action (field trial, Table 6); settings: application in the 3-5-leaf stage, scoring 4 weeks after application
Description: as §1, §3

Kochia scoparia = assay: Herbicidal action (field trial, Table 6); settings: application in the 3-5-leaf stage, scoring 4 weeks after application
Description: as §1, §3

transgenic sugar beet [6] = assay: Damage to transgenic sugar beet (field trial, Table 4); settings: application in 3-leaf stage
Description: as §1, §3

Echinochloa crus-galli = assay: Herbicidal action and selectivity in sugar beet crop (field trial, Table 4); settings: application in 3-leaf stage, scoring 4 weeks after application
Description: as §1, §3

transgenic sugar beet [7] = assay: Damage to transgenic sugar beet (field trial, Table 5); settings: application in the 3-5-leaf stage
Description: as §1, §3

Galium aparine [8] = assay: Herbicidal action in sugar beet crop (greenhouse experiment, Table 3); settings: application in the 4-5-leaf stage, scoring 3 weeks after application
Text: Seeds or rhizomes of monocotyledonous and dicotyledonous weeds are placed in sandy loam soil in cardboard pots, covered with soil and grown in the greenhouse under good growth conditions. […] The compositions according to the
Invention, which are formulated as wettable powders or as emulsion concentrates, are sprayed at various dosages onto the green plant organs at an application rate of 600 to 800 l of water per ha (converted). After the experimental plants have remained in the greenhouse for approx. 3 to 4 weeks under optimal growth conditions, the effect of the preparations is scored visually in comparison with untreated controls. The compositions according to the invention also have a good herbicidal activity against a broad spectrum of economically Important grass weeds and broad-leaved weeds when applied post-emergence.

Avena fatua = assay: Herbicidal action and selectivity in sugar beet crop (field trial, Table 5); settings: application in the 3-5-leaf stage, scoring 4 weeks after application
Description: as §1, §3

## CP(=O)(O)CCC(N)C(=O)O (stereo not shown) [(A1.2), glufosinate monoammonium salt]
Transgenic sugar beet [1]; dose 125 g A.S./ha
  Damage to transgenic sugar beet: 0
Transgenic sugar beet [1]; dose 250 g A.S./ha
  Damage to transgenic sugar beet: 0
Transgenic sugar beet [1]; dose 500 g A.S./ha
  Damage to transgenic sugar beet: 0
Amaranthus retroflexus
  Herbicidal action in % against Amaranthus retroflexus: 55%
Setaria viridis [2]
  Herbicidal action in % against Setaria viridis: 60%
Transgenic sugar beet [3]; dose 37.5 g A.S./ha
  Damage to transgenic sugar beet: 0
Transgenic sugar beet [3]; dose 75 g A.S./ha
  Damage to transgenic sugar beet: 0
Transgenic sugar beet [3]; dose 150 g A.S./ha
  Damage to transgenic sugar beet: 0
Transgenic sugar beet [3]; dose 300 g A.S./ha
  Damage to transgenic sugar beet: 0
Setaria viridis [4]; dose 37.5 g A.S./ha
  Herbicidal action in % against Setaria viridis: 35%
Setaria viridis [4]; dose 75 g A.S./ha
  Herbicidal action in % against Setaria viridis: 85%
Setaria viridis [4]; dose 150 g A.S./ha
  Herbicidal action in % against Setaria viridis: 95%
Setaria viridis [4]; dose 300 g A.S./ha
  Herbicidal action in % against Setaria viridis: 98%
Galium aparine [5]; dose 250 g A.S./ha
  Herbicidal action in % against Galium aparine: 20%
Galium aparine [5]; dose 300 g A.S./ha
  Herbicidal action in % against Galium aparine: 40%
Galium aparine [5]; dose 600 g A.S./ha
  Herbicidal action in % against Galium aparine: 85%
Kochia scoparia; dose 250 g A.S./ha
  Herbicidal action in % against Kochia scoparia: 30%
Kochia scoparia; dose 300 g A.S./ha
  Herbicidal action in % against Kochia scoparia: 52%
Kochia scoparia; dose 600 g A.S./ha
  Herbicidal action in % against Kochia scoparia: 75%
Transgenic sugar beet [6]; dose 0 g A.S./ha
  Damage to transgenic sugar beet: 0
Transgenic sugar beet [6]; dose 10 g A.S./ha
  Damage to transgenic sugar beet: 0
Transgenic sugar beet [6]; dose 65 g A.S./ha
  Damage to transgenic sugar beet: 0
Echinochloa crus-galli
  Herbicidal action in % against Echinochloa crus-galli: 45%
Echinochloa crus-galli; dose 10 g A.S./ha
  Herbicidal action in % against Echinochloa crus-galli: 60%
Echinochloa crus-galli; dose 65 g A.S./ha
  Herbicidal action in % against Echinochloa crus-galli: 85%
Transgenic sugar beet [7]; dose 150 g A.S./ha
  Damage to transgenic sugar beet: 0
Transgenic sugar beet [7]; dose 300 g A.S./ha
  Damage to transgenic sugar beet: 0
Transgenic sugar beet [7]; dose 600 g A.S./ha
  Damage to transgenic sugar beet: 0
Galium aparine [8]; dose 125 g A.S./ha
  Herbicidal action in % against Galium aparine: 45%
Galium aparine [8]; dose 250 g A.S./ha
  Herbicidal action in % against Galium aparine: 60%
Galium aparine [8]; dose 500 g A.S./ha
  Herbicidal action in % against Galium aparine: 85%
Avena fatua; dose 150 g A.S./ha
  Herbicidal action in % against Avena fatua: 30%
Avena fatua; dose 300 g A.S./ha
  Herbicidal action in % against Avena fatua: 65%
Avena fatua; dose 600 g A.S./ha
  Herbicidal action in % against Avena fatua: 95%
